Data reported in patent US9216957B2, “Androgen receptor antagonists and uses thereof” (SUZHOU KINTOR PHARMACEUTICALS, INC., priority 2011, dated 2015).

test system: Prostate-specific antigen (PSA) production in LNCaP cells; assay: PSA Assay (inhibition of PSA production in prostate cancer cells, ELISA); type: cell-based, human; details: Homo sapiens, LNCaP, 72 h, read-out: LNCAP IC50 (uM), inhibition of PSA production, LNCaP cells, R1881 1 ng/ml, three days, seven point assay
Method: PSA Assay (Inhibition Test of the Compound of the Present Invention on Prostate-Specific Antigen (PSA) Production in Various Prostate Cancer Cells).
Androgen dependent LNCaP cells were purchased from the American Type Culture Collection (ATCC, Manassas, Va.). These cells were grown in RPMI 1640 medium supplemented with 10% fetal bovine serum (FBS), 100 U/mL penicillin, 100 μg/mL streptomycin, and 0.25 μg/mL amphotericin B. The cells were maintained at 37° C. and 5% CO2. LNCaP cells between passage 20 and 35 were used for experiments. LNCaP is a hormone sensitive cell line. For the PSA assay, human prostate cancer cells LNCaP were seeded in a 96-well plate at a concentration of 5000 cells/100 μl/well. On the following day, Methyltrienolone (R1881, AR agonist) (final concentration 1 ng/ml), test compounds or bicalutamide (Casodex®, AstraZeneca) (final concentration 0.005 to 20 μM) were added. Three days after the addition, the concentration of PSA in the supernatant of the culture solution was measured by ELISA. ELISAs for human PSA in culture medium were performed using the ultra-sensitive assay procedure and reagents in the Active™ PSA assay kit (Diagnostic Systems Laboratories Inc., Webster, Tex.). Culture medium and standards (200 μl/well) were incubated in antibody-coated plates for 2 h at room temperature on a Titer plate shaker at 500-600 rpm. Wells were then washed five times. The HRP conjugate was diluted 1:20 with assay buffer, and 100 μl was added to all wells. The plates were incubated for 30 min at room temperature on the shaker and washed as before, and 100 μl TMB (3,3′,5,5′-tetramethylbenzidine, 0.4 g/l) was added. The plates were incubated for 10 min on the shaker, and the reaction was terminated with 100 μl stop solution. The plates were read using a plate reader at 450 nm with a 650 nm reference filter. PSA levels were normalized for differences in growth of LNCaP cells following various treatments as determined by the MTS assay. IC50 of PSA was calculated based on a seven point assay (concentrations of tested compound) and expressed as micromolar (uM).

Point of comparison: `CNC(=O)COCc1ccc(N2C(=S)N(c3ccc(C#N)c(Cl)c3F)C(=O)C2(C)C)cc1` [Example 18, 2-((4-(3-(3-chloro-4-cyano-2-fluorophenyl)-5,5-dimethyl-4-oxo-2-thioxoimidazolidin-1-yl)benzyl)oxy)-N-methylacetamide], IC50 0.56 µM. Against it:
- COC(=O)CCCc1ccc(N2C(=S)N(c3ccc(C#N)c(Cl)c3F)C(=O)C2(C)C)cc1 [Example 1, methyl 4-(4-(3-(3-chloro-4-cyano-2-fluorophenyl)-5,5-dimethyl-4-oxo-2-thioxoimidazolidin-1-yl)phenyl)butanoate] — 2.4-fold higher, 1.34 µM
- COC(=O)CCCc1ccc(N2C(=S)N(c3ccc(C#N)c(C(F)(F)F)c3F)C(=O)C2(C)C)cc1 [Example 2, methyl 4-(4-(3-(4-cyano-2-fluoro-3-(trifluoromethyl)phenyl)-5,5-dimethyl-4-oxo-2-thioxoimidazolidin-1-yl)phenyl)butanoate] — 2.6-fold higher, 1.45 µM
- COC(=O)CCc1ccc(N2C(=S)N(c3ccc(C#N)c(C(F)(F)F)c3F)C(=O)C2(C)C)cc1 [Example 3, methyl 3-(4-(3-(4-cyano-2-fluoro-3-(trifluoromethyl)phenyl)-5,5-dimethyl-4-oxo-2-thioxoimidazolidin-1-yl)phenyl)propanoate] — 14-fold higher, 7.83 µM
- CNC(=O)CCc1ccc(N2C(=S)N(c3ccc(C#N)c(C(F)(F)F)c3F)C(=O)C2(C)C)cc1 [Example 4, 3-(4-(3-(4-cyano-2-fluoro-3-(trifluoromethyl)phenyl)-5,5-dimethyl-4-oxo-2-thioxoimidazolidin-1-yl)phenyl)-N-methylpropanamide] — 26-fold higher, 14.4 µM
- CNC(=O)CCCc1ccc(N2C(=S)N(c3ccc(C#N)c(C(F)(F)F)c3F)C(=O)C2(C)C)cc1 [Example 5, 4-(4-(3-(4-cyano-2-fluoro-3-(trifluoromethyl)phenyl)-5,5-dimethyl-4-oxo-2-thioxoimidazolidin-1-yl)phenyl)-N-methylbutanamide] — 1.5-fold lower, 0.37 µM
- CNC(=O)CCCc1ccc(N2C(=S)N(c3cc(C(F)(F)F)c(C#N)cc3F)C(=O)C2(C)C)cc1 [Example 6, 4-(4-(3-(4-cyano-2-fluoro-5-(trifluoromethyl)phenyl)-5,5-dimethyl-4-oxo-2-thioxoimidazolidin-1-yl)phenyl)-N-methylbutanamide] — 8.5-fold higher, 4.75 µM
- CNC(=O)CCCc1ccc(N2C(=S)N(c3ccc(C#N)c(Cl)c3F)C(=O)C2(C)C)cc1 [Example 7, 4-(4-(3-(3-chloro-4-cyano-2-fluorophenyl)-5,5-dimethyl-4-oxo-2-thioxoimidazolidin-1-yl)phenyl)-N-methylbutanamide] — within 1.5-fold, 0.65 µM
- CC1(C)C(=O)N(c2ccc(C#N)c(C(F)(F)F)c2F)C(=S)N1c1ccc(CCCC(N)=O)cc1 [Example 8, 4-(4-(3-(4-cyano-2-fluoro-3-(trifluoromethyl)phenyl)-5,5-dimethyl-4-oxo-2-thioxoimidazolidin-1-yl)phenyl)butanamide] — within 1.5-fold, 0.43 µM
- CC1(C)C(=O)N(c2ccc(C#N)c(Cl)c2F)C(=S)N1c1ccc(CCCC(N)=O)cc1 [Example 9, 4-(4-(3-(3-chloro-4-cyano-2-fluorophenyl)-5,5-dimethyl-4-oxo-2-thioxoimidazolidin-1-yl)phenyl)butanamide] — within 1.5-fold, 0.59 µM
- CNC(=O)CCCc1ccc(N2C(=S)N(c3ccc(C#N)c(C(F)(F)F)c3F)C(=O)C23CCC3)cc1 [Example 10, 4-(4-(7-(4-cyano-2-fluoro-3-(trifluoromethyl)phenyl)-8-oxo-6-thioxo-5,7-diazaspiro[3.4]octan-5-yl)phenyl)-N-methylbutanamide] — within 1.5-fold, 0.42 µM
- CNC(=O)CCCc1ccc(N2C(=S)N(c3ccc(C#N)c(Cl)c3F)C(=O)C23CCC3)cc1 [Example 11, 4-(4-(7-(3-chloro-4-cyano-2-fluorophenyl)-8-oxo-6-thioxo-5,7-diazaspiro[3.4]octan-5-yl)phenyl)-N-methylbutanamide] — within 1.5-fold, 0.54 µM
- CN(C)C(=O)CCCc1ccc(N2C(=S)N(c3ccc(C#N)c(C(F)(F)F)c3F)C(=O)C2(C)C)cc1 [Example 12, 4-{4-[3-(4-Cyano-2-fluoro-3-trifluoromethyl-phenyl)-5,5-dimethyl-4-oxo-2-thioxo-imidazolidin-1-yl]-phenyl}-N,N-dimethyl-butyramide] — within 1.5-fold, 0.61 µM
- COc1c(C#N)ccc(N2C(=O)C(C)(C)N(c3ccc(CCCC(=O)N(C)C)cc3)C2=S)c1F [Example 13, 4-{4-[3-(4-Cyano-2-fluoro-3-methoxy-phenyl)-5,5-dimethyl-4-oxo-2-thioxo-imidazolidin-1-yl]-phenyl}-N,N-dimethyl-butyramide] — 1.9-fold higher, 1.06 µM
- CN(C)C(=O)CCCc1ccc(N2C(=S)N(c3ccc(C#N)c(Cl)c3F)C(=O)C2(C)C)cc1 [Example 14, 4-{4-[3-(3-Chloro-4-cyano-2-fluoro-phenyl)-5,5-dimethyl-4-oxo-2-thioxo-imidazolidin-1-yl]-phenyl}-N,N-dimethyl-butyramide] — within 1.5-fold, 0.69 µM
- CNC(=O)CCOc1ccc(N2C(=S)N(c3ccc(C#N)c(C(F)(F)F)c3F)C(=O)C2(C)C)cc1 [Example 15, 3-(4-(3-(4-cyano-2-fluoro-3-(trifluoromethyl)phenyl)-5,5-dimethyl-4-oxo-2-thioxoimidazolidin-1-yl)phenoxy)-N-methylpropanamide] — within 1.5-fold, 0.45 µM
- CNC(=O)CCOc1ccc(N2C(=S)N(c3ccc(C#N)c(Cl)c3F)C(=O)C2(C)C)cc1 [Example 16, 3-(4-(3-(3-chloro-4-cyano-2-fluorophenyl)-5,5-dimethyl-4-oxo-2-thioxoimidazolidin-1-yl)phenoxy)-N-methylpropanamide] — within 1.5-fold, 0.58 µM
- CNC(=O)COCc1ccc(N2C(=S)N(c3ccc(C#N)c(C(F)(F)F)c3F)C(=O)C2(C)C)cc1 [Example 17, 2-((4-(3-(4-cyano-2-fluoro-3-(trifluoromethyl)phenyl)-5,5-dimethyl-4-oxo-2-thioxoimidazolidin-1-yl)benzyl)oxy)-N-methylacetamide] — within 1.5-fold, 0.53 µM
- CC1(C)C(=O)N(c2ccc(C#N)c(C(F)(F)F)c2F)C(=S)N1c1ccc(CCCc2ncc[nH]2)cc1 [Example 19, 4-(3-(4-(3-(1H-imidazol-2-yl)propyl)phenyl)-4,4-dimethyl-5-oxo-2-thioxoimidazolidin-1-yl)-3-fluoro-2-(trifluoromethyl)benzonitrile] — within 1.5-fold, 0.76 µM
- CC1(C)C(=O)N(c2ccc(C#N)c(Cl)c2F)C(=S)N1c1ccc(CCCc2ncc[nH]2)cc1 [Example 20, 2-Chloro-3-fluoro-4-(3-{4-[3-(1H-imidazol-2-yl)-propyl]-phenyl}-4,4-dimethyl-5-oxo-2-thioxo-imidazolidin-1-yl)-benzonitrile] — 3.8-fold higher, 2.14 µM
- COc1c(C#N)ccc(N2C(=O)C(C)(C)N(c3ccc(CCCc4ncc[nH]4)cc3)C2=S)c1F [Example 21, 3-Fluoro-4-(3-{4-[3-(1H-imidazol-2-yl)-propyl]-phenyl}-4,4-dimethyl-5-oxo-2-thioxo-imidazolidin-1-yl)-2-methoxy-benzonitrile] — 3.3-fold higher, 1.83 µM
- CNC(=O)C(C)(C)CCc1ccc(N2C(=S)N(c3ccc(C#N)c(C(F)(F)F)c3F)C(=O)C2(C)C)cc1 [Example 22, 4-{4-[3-(4-Cyano-2-fluoro-3-trifluoromethyl-phenyl)-5,5-dimethyl-4-oxo-2-thioxo-imidazolidin-1-yl]-phenyl}-2,2,N-trimethyl-butyramide] — within 1.5-fold, 0.6 µM
- CNC(=O)C(C)(C)CCc1ccc(N2C(=S)N(c3ccc(C#N)c(OC)c3F)C(=O)C2(C)C)cc1 [Example 23, 4-{4-[3-(4-Cyano-2-fluoro-3-methoxy-phenyl)-5,5-dimethyl-4-oxo-2-thioxo-imidazolidin-1-yl]-phenyl}-2,2,N-trimethyl-butyramide] — 1.6-fold higher, 0.89 µM
- CNC(=O)C(C)(C)CCc1ccc(N2C(=S)N(c3ccc(C#N)c(Cl)c3F)C(=O)C2(C)C)cc1 [Example 24, 4-{4-[3-(3-Chloro-4-cyano-2-fluoro-phenyl)-5,5-dimethyl-4-oxo-2-thioxo-imidazolidin-1-yl]-phenyl}-2,2,N-trimethyl-butyramide] — 1.9-fold higher, 1.09 µM
- CNC(=O)C(C)(C)CCc1ccc(N2C(=S)N(c3ccc(C#N)c(C(F)(F)F)c3F)C(=O)C23CCC3)cc1 [Example 25, 4-{4-[7-(4-Cyano-2-fluoro-3-trifluoromethyl-phenyl)-8-oxo-6-thioxo-5,7-diaza-spiro[3.4]oct-5-yl]-phenyl}-2,2,N-trimethyl-butyramide] — within 1.5-fold, 0.82 µM
- CNC(=O)C(C)(C)CCc1ccc(N2C(=S)N(c3ccc(C#N)c(OC)c3F)C(=O)C23CCC3)cc1 [Example 26, 4-{4-[7-(4-Cyano-2-fluoro-3-methoxy-phenyl)-8-oxo-6-thioxo-5,7-diaza-spiro[3.4]oct-5-yl]-phenyl}-2,2,N-trimethyl-butyramide] — 1.7-fold higher, 0.97 µM

same assay, conditions: Homo sapiens; LNCaP cells; read-out: IC50 of inhibition of PSA production in LNCaP cells

Work on `CC(O)(CS(=O)(=O)c1ccc(F)cc1)C(=O)Nc1ccc(C#N)c(C(F)(F)F)c1` (stereo not drawn) [Bicalutamide, reference compound] yielded an IC50 of 3.1 µM.
